Measurements published in US7300764B2, “Method for identifying agonists and antagonists of the GPR45-like/GPR63 receptor” (Sanofi-Aventis Deutschland GmbH, priority 2002, dated 2007).

Assays:
[1] = biological target: T1, GPR45 like/GPR63 receptor (Homo sapiens, UniProt Q9BZJ6); experiment: FLIPR assay, stimulation of intracellular Ca2+ release in transfected CHO cells; type: cell-based; set-up: The PCR fragment with a length of 1,260 base pairs which was formed by the PCR described above was incorporated; expressed in transfected cells; host or cells: CHO-K1 cells, transient transfection with Lipofectamine; settings: final concentration of 1 μM; CHO cells expressing GPR45 like/GPR63 receptor and G protein α subunit delta 6qi4mgr
Description: CHO-K1 cells were cultivated in basal Iscove's medium with further additions. Iscove's medium is commercially available from, for example, Biochrom, Berlin. The composition was described for the first time in N. N. Iscove and F. Melchers, Journal of Experimental Medicine 147, 923-933 (1978). 10% fetal bovine serum, 10 000 U/ml-10 000 μg/ml penicillin-streptomycin, gentamycin, and 2 mM L-glutamine were used as further additions to Iscove's medium. The cells were incubated at 37° C. with a 5% CO2 atmosphere.
About 2×10^5 CHO-K1 cells were seeded in 35 mm dishes for the transient transfection. After further incubation for about 24 hours and with the cells at about 50-80% confluence, the cells were transiently transfected with 1 μg of the plasmid DNA construct with the assistance of Lipofectamine (Gibco).
About 16 to 18 hours after the transfection, the CHO cells were put in an amount of about 80,000 cells per well in 96-well plates and incubated further for about 18-24 hours. […]
After the last washing step, 100 μl were left on the cells in each well. […] A 60 μM solution was kept ready on a 96-well microtiter plate. […]
The fluorescence was measured by a Fluorometric Imaging Plate Reader (FLIPR®, Molecular Devices, Sunnyvale, Calif.) for 1 min in intervals lasting 1 sec and for a further 2 min in 3-second intervals. […]

[2] = biological target: T1, GPR45 like/GPR63 receptor; experiment: Cell growth assay in transfected CHO cells; type: cell-based; set-up: The PCR fragment with a length of 1,260 base pairs which was formed by the PCR described above was incorporated; expressed in transfected cells; host or cells: CHO cells, transient transfection with Lipofectamine; settings: 1 μM S1P, 48 hours, Iscove's medium with 10% dialyzed fetal calf serum, average of 2 independent tests
Description: CHO cells were put in an amount of 8×10^4 cells into 35 mm plates. After 32 hours, the cells were transfected with 1 μg of the plasmid construct using Lipofectamine (Gibco). After a further 13 hours (time 0), the cells were washed with PBS and incubated in Iscove's medium which contained 10% dialyzed fetal calf serum for 48 hours (time 48), specifically in the presence or absence of 1 μM S1P (sphingosine 1-phosphate).
The number of cells at time 0 and time 48 was determined by counting. This was done by first treating the cells with trypsin and then suspending them in 1 ml of Iscove's. An amount of 100 μl of these cells was diluted in 10 ml of buffer and counted in a cell counter, e.g. in the Casy Cellcounter TT (Cell Counter und Analysesystem, Schärfe, Reutlingen).
An amount of 8×10^4 CHO cells was seeded onto 35 mm plates. The cells were transfected after 32 hours with 1 μg of DNA of the vector construction. After 13 hours, the cells were washed once with PBS and incubated in Iscove's medium containing 10% dialyzed fetal calf serum in the presence or absence of 1 μM S1P for a further 48 hours.

T1 sequence (Q9BZJ6 whole entry, the tested form may be a part): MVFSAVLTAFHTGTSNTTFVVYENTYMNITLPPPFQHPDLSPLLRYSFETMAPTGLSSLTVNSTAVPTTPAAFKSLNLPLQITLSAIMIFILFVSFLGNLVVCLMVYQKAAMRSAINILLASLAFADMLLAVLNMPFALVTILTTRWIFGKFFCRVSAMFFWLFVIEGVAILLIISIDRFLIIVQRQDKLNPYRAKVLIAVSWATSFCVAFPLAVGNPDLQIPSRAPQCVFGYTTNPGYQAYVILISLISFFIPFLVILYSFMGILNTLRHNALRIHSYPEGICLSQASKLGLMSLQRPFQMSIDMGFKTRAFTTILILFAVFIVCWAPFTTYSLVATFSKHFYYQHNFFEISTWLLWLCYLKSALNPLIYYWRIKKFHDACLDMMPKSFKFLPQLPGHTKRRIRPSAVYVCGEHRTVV

With `CCCCCCCCCCCCCCC[C@@H](O)[C@@H](N)COP(=O)(O)O` [DHS1P, dihydrosphingosine 1-phosphate] the “Ca^2+ influx” value [1] was “led to a measurable Ca^2+ influx”.
`CCCCCCCCCCCCC/C=C/[C@@H](O)[C@@H](N)COP(=O)(O)O` [S1P, sphingosine 1-phosphate] was tested, and the “more cells (cell number vs absence of S1P)” value [2] was “about 20%” and the “Ca^2+ influx” value [1] was “led to a measurable Ca^2+ influx”.
